Experimental data: ChEMBL document CHEMBL1146965, “Pyridone derivatives as potent and selective VLA-4 integrin antagonists” (Bioorg Med Chem Lett, 2006)

Key:
Format in all cases: cell-based
Integrin alpha-4/beta-1 = Integrin alpha-4/beta-1 (Homo sapiens, UniProt P05556+P13612); assay: Binding affinity to integrin alpha-4-beta-1 expressed in jurkat J6 cells
Integrin alpha-5/beta-1 = Integrin alpha-5/beta-1 (Homo sapiens, UniProt P05556+P08648); assay: Binding affinity to integrin alpha-5-beta-1 expressed in jurkat J6 cells
Sequence of Integrin alpha-5/beta-1 (P05556 21-798 limits assumed): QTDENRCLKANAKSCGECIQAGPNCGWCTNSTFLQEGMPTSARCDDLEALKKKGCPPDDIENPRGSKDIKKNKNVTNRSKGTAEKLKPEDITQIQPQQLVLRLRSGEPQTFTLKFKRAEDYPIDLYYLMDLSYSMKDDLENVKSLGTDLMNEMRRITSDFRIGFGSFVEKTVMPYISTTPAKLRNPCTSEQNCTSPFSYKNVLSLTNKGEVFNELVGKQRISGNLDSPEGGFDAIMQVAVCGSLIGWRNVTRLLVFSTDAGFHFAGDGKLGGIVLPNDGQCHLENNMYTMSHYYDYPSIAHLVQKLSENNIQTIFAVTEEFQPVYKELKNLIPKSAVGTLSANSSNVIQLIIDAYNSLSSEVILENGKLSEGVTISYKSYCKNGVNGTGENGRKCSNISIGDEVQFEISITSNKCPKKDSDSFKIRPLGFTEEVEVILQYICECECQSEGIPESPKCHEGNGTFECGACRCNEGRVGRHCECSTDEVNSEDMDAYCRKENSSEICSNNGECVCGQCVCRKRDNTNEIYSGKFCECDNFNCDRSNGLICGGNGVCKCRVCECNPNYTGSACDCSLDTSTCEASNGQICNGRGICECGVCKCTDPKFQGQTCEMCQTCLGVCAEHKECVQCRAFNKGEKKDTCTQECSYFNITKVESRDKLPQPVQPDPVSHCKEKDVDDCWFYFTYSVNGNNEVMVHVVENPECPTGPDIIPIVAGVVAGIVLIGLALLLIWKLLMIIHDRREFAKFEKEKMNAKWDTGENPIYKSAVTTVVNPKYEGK
Sequence of Integrin alpha-5/beta-1 (P08648 42-894 partner limits assumed): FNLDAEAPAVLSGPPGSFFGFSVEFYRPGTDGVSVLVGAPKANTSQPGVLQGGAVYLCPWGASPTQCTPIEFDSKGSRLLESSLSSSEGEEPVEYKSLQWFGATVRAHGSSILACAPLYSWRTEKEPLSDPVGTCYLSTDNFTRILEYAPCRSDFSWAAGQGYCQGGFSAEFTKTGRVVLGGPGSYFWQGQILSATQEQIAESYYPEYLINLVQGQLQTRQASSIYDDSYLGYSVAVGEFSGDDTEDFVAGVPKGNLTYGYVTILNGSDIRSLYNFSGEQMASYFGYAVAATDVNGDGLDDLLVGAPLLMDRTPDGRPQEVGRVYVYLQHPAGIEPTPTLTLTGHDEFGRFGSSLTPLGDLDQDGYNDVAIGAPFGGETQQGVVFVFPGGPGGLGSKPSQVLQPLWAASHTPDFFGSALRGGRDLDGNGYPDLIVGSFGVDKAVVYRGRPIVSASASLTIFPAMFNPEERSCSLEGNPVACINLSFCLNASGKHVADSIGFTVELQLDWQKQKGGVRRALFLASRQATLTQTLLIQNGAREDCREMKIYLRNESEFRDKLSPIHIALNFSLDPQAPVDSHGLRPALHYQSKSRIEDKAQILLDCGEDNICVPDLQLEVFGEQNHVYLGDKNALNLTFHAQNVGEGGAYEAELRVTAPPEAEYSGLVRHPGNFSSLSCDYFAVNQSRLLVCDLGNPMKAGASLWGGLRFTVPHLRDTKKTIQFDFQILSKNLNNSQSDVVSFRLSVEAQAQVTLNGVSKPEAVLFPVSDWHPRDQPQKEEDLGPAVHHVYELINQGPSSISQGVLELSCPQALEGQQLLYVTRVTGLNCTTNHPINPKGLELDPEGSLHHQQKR
Sequence of Integrin alpha-5/beta-1 (P08648 895-1049 partner limits assumed): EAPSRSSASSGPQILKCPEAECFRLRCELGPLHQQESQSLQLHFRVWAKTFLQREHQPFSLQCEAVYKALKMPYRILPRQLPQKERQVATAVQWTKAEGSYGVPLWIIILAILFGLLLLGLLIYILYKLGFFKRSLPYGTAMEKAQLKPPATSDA

Integrin alpha-V/beta-3 = Integrin alpha-V/beta-3 (Homo sapiens, UniProt P05106+P06756); assay: Binding affinity to integrin alphavbeta3 expressed in jurkat J6 cells
Integrin alpha-V/beta-6 = Integrin alpha-V/beta-6 (Homo sapiens, UniProt P06756+P18564); assay: Binding affinity to integrin alpha-v-beta-6 expressed in jurkat J6 cells
Sequence of Integrin alpha-V/beta-6 (P06756 31-889 limits assumed): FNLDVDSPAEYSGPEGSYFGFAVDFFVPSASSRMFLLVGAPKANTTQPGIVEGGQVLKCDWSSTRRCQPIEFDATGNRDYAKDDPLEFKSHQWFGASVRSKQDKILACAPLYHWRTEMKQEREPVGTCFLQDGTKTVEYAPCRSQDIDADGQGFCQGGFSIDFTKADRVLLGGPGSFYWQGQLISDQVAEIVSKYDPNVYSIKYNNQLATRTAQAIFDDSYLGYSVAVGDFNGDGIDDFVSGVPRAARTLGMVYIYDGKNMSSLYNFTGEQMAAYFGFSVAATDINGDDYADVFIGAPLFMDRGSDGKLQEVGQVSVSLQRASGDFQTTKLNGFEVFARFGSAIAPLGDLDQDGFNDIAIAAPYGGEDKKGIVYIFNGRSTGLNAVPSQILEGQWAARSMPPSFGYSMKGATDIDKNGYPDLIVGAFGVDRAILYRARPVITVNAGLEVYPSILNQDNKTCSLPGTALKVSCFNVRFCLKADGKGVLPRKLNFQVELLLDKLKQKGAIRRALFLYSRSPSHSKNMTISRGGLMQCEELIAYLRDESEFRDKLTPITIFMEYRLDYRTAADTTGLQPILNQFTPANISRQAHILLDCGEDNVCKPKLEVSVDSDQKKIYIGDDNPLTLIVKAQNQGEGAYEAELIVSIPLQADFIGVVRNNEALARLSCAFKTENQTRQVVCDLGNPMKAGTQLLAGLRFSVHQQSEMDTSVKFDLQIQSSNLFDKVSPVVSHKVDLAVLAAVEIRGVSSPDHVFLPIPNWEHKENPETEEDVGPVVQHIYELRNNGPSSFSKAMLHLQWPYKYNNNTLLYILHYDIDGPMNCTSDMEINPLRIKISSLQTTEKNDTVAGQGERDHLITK
Sequence of Integrin alpha-V/beta-6 (P06756 891-1048 limits assumed): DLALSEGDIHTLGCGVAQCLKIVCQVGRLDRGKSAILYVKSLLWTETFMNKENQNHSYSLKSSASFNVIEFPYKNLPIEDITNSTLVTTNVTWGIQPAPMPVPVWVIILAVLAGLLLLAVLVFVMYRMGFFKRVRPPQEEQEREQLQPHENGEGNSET
Sequence of Integrin alpha-V/beta-6 (P18564 22-788 limits assumed): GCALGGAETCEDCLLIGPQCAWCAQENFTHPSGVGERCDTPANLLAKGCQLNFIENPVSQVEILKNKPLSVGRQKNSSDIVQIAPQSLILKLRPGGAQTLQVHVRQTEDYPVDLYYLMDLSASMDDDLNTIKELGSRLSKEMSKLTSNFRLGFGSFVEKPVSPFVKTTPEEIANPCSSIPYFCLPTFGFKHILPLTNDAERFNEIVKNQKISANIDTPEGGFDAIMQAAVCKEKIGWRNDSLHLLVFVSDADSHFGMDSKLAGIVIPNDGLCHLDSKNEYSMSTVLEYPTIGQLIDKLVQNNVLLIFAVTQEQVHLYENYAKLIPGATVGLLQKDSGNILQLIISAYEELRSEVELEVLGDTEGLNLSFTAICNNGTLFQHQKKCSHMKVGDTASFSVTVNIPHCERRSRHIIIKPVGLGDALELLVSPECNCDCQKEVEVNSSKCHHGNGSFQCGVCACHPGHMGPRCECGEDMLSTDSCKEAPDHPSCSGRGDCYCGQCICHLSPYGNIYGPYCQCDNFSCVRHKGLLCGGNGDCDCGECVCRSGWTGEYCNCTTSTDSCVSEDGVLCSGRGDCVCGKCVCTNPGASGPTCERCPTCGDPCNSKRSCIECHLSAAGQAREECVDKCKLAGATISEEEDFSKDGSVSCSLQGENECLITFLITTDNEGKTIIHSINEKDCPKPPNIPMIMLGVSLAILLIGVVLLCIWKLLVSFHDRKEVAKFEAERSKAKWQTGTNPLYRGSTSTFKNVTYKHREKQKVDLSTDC

Integrin alpha-4/beta-7 = target: T1, Integrin alpha-4/beta-7 (Homo sapiens, UniProt P13612+P26010); assay: Binding affinity to integrin alpha-4-beta-7 expressed in jurkat J6 cells
T1 sequence (P13612 whole entry): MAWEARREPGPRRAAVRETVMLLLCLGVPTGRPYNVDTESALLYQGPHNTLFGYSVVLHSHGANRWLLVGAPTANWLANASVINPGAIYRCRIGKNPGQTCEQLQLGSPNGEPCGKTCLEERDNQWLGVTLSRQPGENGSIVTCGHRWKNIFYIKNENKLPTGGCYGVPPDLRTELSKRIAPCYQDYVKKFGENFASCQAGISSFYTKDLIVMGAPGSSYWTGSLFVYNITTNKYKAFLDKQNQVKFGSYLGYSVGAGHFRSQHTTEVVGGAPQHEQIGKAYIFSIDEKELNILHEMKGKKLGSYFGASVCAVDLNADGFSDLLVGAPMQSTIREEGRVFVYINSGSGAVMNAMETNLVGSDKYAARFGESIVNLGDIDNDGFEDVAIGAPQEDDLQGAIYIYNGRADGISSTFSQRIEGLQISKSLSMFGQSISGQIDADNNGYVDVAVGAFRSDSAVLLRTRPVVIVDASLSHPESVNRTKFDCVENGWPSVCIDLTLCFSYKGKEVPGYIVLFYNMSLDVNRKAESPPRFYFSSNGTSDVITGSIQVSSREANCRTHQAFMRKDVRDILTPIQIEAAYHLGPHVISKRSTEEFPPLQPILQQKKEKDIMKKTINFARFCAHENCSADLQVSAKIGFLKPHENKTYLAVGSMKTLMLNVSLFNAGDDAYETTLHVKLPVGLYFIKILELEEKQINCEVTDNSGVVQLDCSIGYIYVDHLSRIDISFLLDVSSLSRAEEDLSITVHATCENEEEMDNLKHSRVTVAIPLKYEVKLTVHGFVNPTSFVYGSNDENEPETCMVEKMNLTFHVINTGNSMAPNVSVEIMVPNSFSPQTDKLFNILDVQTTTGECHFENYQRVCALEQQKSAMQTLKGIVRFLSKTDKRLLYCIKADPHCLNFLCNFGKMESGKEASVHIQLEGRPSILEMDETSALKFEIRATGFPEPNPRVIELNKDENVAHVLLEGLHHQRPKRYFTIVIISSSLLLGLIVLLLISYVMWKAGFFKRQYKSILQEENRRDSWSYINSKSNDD
T1 sequence (P26010 whole entry): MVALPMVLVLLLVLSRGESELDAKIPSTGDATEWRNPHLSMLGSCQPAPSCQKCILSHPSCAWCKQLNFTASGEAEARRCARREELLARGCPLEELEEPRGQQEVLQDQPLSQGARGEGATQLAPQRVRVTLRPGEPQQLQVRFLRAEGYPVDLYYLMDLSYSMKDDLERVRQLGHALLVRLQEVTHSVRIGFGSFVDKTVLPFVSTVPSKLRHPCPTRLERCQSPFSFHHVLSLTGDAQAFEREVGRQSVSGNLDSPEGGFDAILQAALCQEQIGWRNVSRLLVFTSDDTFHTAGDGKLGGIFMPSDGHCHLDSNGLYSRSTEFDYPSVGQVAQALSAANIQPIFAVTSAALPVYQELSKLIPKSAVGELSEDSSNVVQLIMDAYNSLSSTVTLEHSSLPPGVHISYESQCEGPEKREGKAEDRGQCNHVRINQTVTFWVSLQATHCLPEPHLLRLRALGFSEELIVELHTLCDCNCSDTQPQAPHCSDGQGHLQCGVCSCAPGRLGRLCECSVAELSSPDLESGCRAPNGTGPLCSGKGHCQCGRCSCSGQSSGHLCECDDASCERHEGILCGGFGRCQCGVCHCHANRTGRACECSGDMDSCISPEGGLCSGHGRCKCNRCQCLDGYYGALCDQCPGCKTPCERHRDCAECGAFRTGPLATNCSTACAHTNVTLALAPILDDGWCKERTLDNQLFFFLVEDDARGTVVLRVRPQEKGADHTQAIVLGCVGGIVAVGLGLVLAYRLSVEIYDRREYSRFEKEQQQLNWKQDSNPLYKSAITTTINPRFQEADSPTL

[1] = target: Integrin alpha-IIb/beta-3 (Homo sapiens, UniProt P05106+P08514); assay: Binding affinity to integrin […] expressed in jurkat J6 cells

Sequence of Integrin alpha-4/beta-1 (P05556 whole entry, one chain of several): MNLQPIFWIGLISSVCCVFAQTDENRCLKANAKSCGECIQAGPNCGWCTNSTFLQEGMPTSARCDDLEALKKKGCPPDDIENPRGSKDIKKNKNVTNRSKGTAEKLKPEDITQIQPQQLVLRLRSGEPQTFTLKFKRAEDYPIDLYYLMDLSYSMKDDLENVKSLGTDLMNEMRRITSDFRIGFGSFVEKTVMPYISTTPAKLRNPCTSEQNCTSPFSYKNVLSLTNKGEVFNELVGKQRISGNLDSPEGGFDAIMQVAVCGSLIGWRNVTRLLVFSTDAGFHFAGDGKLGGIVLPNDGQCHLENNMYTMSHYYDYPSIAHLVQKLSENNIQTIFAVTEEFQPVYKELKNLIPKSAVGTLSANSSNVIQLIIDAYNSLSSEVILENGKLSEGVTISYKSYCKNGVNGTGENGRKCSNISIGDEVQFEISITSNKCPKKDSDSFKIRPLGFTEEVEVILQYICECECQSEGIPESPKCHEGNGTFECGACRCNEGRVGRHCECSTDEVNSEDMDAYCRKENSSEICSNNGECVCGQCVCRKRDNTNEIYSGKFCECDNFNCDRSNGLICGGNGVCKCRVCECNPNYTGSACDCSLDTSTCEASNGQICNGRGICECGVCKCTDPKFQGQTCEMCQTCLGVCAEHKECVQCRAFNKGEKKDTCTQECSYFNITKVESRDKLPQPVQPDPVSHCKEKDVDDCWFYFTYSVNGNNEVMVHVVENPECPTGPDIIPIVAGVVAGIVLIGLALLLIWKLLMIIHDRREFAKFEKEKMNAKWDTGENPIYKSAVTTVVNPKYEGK

Structure (SMILES) | Ki (Integrin alpha-4/beta-1) [nM] | also measured
Cc1ccccc1NC(=O)Nc1ccc(-c2cnn(Cc3ccc(CCC(=O)O)cc3)c2)cc1 | > 1000 | 
COc1cc(-c2cccn(Cc3ccc(CCC(=O)O)cc3)c2=O)ccc1NC(=O)Nc1ccccc1C | 0.501 | 
COc1cc(CC(=O)Nc2ccc([C@H](C)CC(=O)O)cc2)ccc1NC(=O)Nc1ccccc1C | 0.794 | 
Cc1ccccc1NC(=O)Nc1ccc(-c2ccn(Cc3ccc(CCC(=O)O)cc3)n2)cc1 | 251 | 
Cc1ccccc1NC(=O)Nc1ccc(CC(=O)Nc2ccc([C@H](C)CC(=O)O)cc2)cc1 | 63.1 | 
Cc1ccccc1NC(=O)Nc1ccc(-c2ncn(Cc3ccc(CCC(=O)O)cc3)n2)cc1 | 501 | 
Cc1ccccc1NC(=O)Nc1ccc(-c2cn(Cc3ccc(CCC(=O)O)cc3)cn2)cc1 | > 100000 | 
COc1cc(-c2ccn(Cc3ccc(CCC(=O)O)cc3)n2)ccc1NC(=O)Nc1ccccc1C | 25.1 | 
COc1cc(-c2nnc(Cc3ccc(CCC(=O)O)cc3)o2)ccc1NC(=O)Nc1ccccc1C | > 1000 | 

Second part, led by results:

Ki (Integrin alpha-4/beta-1) [nM] | Structure (SMILES) | also measured
> 1000 | Cc1ccccc1NC(=O)Nc1ccc(-c2cccn(-c3ccc(CCC(=O)O)cc3)c2=O)cc1 | 
316 | Cc1ccccc1NC(=O)Nc1ccc(-c2cccn(Cc3ccc(C(=O)O)cc3)c2=O)cc1 | 
251 | Cc1ccccc1NC(=O)Nc1ccc(-c2cccn(Cc3ccc(CC(=O)O)cc3)c2=O)cc1 | 
398 | Cc1ccccc1NC(=O)Nc1ccc(-c2cccn(Cc3ccccc3CCC(=O)O)c2=O)cc1 | 
2 | Cc1ccccc1NC(=O)Nc1ccc(-c2cccn(Cc3ccc(CCC(=O)O)cc3)c2=O)cc1 | Ki (Integrin alpha-5/beta-1): > 10000 nM; Ki (Integrin alpha-V/beta-3): > 10000 nM; Ki (Integrin alpha-V/beta-6): > 10000 nM; Ki (Integrin alpha-4/beta-7): > 10000 nM; Ki [1]: > 10000 nM
3.98 | Cc1ccccc1NC(=O)Nc1ccc(-c2cccn(Cc3cccc(CCC(=O)O)c3)c2=O)cc1 | 
